A value given as a limit tells only on which side of the number the result lay.

Here are results for 16 compounds from ChEMBL document CHEMBL3421545, “Discovery of novel non-covalent inhibitors selective to the β5-subunit of the human 20S proteasome” (Eur J Med Chem, 2015).

Assay [1] concerns the target T1, Proteasome Macropain subunit MB1 (Homo sapiens, UniProt P28074).
T1 sequence (P28074 whole entry): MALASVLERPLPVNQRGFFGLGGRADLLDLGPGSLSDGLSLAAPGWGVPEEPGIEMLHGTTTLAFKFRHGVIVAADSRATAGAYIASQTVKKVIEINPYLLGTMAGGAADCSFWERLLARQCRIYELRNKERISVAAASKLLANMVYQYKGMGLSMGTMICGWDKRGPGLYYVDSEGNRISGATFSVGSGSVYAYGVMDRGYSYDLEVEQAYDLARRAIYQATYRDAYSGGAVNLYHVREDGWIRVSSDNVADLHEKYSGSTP
Kind of assay: Inhibition of chymotrypsin-like activity of human beta-5 subunit of 20S proteasome using Suc-LLVY-AMC as substrate by fluorometer analysis.

Assay [2] has as its target Proteasome subunit beta type-7, β2, trypsin-like (Homo sapiens) (UniProt Q99436). Put plainly: Inhibition of trypsin-like activity of human beta-2 subunit of 20S proteasome using Bz-VGR-AMC as substrate at 10 ug/ml by fluorometer analysis.
Assay [3] concerns the target Proteasome subunit beta type-6, β1, caspase-like (Homo sapiens) (UniProt P28072). Kind of assay: Inhibition of caspase-like activity of human beta-1 subunit of 20S proteasome using (Z)-LLE-bNA as substrate at 10 ug/ml by fluorometer analysis.
Assay [4] can be described thus: Inhibition of chymotrypsin-like activity of 20S proteasome isolated from human THP1 cells using Suc-Leu-Leu-Val-Tyr-MCA as substrate by fluorometer analysis. In kind it is cell-free. The conditions noted are these: thp-1.

Chain of Proteasome subunit beta type-7, β2, trypsin-like (Homo sapiens) (Q99436 whole entry, looked up): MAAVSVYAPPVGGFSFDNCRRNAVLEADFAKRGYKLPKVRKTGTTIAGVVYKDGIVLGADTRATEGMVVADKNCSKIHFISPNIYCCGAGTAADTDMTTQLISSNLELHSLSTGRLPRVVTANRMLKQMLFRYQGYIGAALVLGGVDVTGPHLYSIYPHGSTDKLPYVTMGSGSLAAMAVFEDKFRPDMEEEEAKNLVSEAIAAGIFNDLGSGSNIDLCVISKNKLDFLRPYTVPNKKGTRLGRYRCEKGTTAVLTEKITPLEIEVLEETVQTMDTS
Chain of Proteasome subunit beta type-6, β1, caspase-like (Homo sapiens) (P28072 whole entry, looked up): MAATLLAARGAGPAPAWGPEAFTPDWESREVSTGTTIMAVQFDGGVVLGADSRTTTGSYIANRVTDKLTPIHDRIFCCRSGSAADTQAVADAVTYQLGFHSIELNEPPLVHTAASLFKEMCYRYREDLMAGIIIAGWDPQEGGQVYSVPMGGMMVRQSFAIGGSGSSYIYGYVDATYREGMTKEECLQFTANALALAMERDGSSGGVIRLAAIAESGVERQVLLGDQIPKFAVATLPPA

In the case of `COc1ccc(CNC(=O)[C@@H](NC(=O)[C@H](CC(N)=O)NC(=O)Cc2cccc(Oc3ccccc3)c2)C(C)C)c(OC)c1`, the IC50 – broadly, the concentration at which inhibition is half-maximal – in assay [1] was “Not Active”.

For `CC(C)[C@H](NC(=O)[C@H](CC(N)=O)NC(=O)Cc1cccc(Oc2ccccc2)c1)C(=O)O`, the IC50 entry in assay [1] is recorded as “Not Active”.

As for `CC(C)[C@H](NC(=O)[C@H](CC(N)=O)NC(=O)Cc1cccc(Oc2ccccc2)c1)C(=O)N[C@H](C(=O)OCc1ccccc1)[C@H](C)O`, in assay [1] (read-out: IC50), the IC50 is 0.92 µM. Besides, the inhibition in assay [2] and in assay [3] was < 50% throughout.

`CC(C)[C@H](NC(=O)[C@H](CC(N)=O)NC(=O)Cc1cccc(Oc2ccccc2)c1)C(=O)NCCO`: the IC50 in assay [1] (read-out: IC50) is 17.2 µM.

`COc1ccc(CNC(=O)[C@@H](NC(=O)[C@H](CC(N)=O)NC(=O)Cc2cccc(Oc3ccccc3)c2)C(C)C)c(O)c1`: in assay [1] (read-out: IC50), the IC50 worked out at 0.66 µM. Also, the inhibition in assay [2] and in assay [3] was < 50% each time.

`C/C=C\NC(=O)[C@H]1NC(=O)[C@@H](CC(N)=O)NC(=O)[C@@H](NC(=O)C(=O)[C@@H](C)CC)Cc2ccc(O)c(c2)-c2cccc3c2NC(=O)[C@@]3(O)[C@@H]1O` returned an IC50 in assay [4] of 0.0054 µM.

As for `COc1ccc(CNC(=O)[C@@H](NC(=O)[C@H](CCC(N)=O)NC(=O)Cc2cccc(Oc3ccccc3)c2)C(C)C)c(O)c1`, the IC50 in assay [1] (read-out: IC50) was found to be 1.63 µM.

Regarding `CC(C)[C@H](NC(=O)[C@H](CC(N)=O)NC(=O)Cc1cccc(Oc2ccccc2)c1)C(=O)OCc1ccccc1`, the IC50 in assay [1] (read-out: IC50) worked out at 17.3 µM.

Turning to `CC(C)[C@H](NC(=O)[C@H](CC(N)=O)NC(=O)Cc1cccc(Oc2ccccc2)c1)C(=O)N[C@@H](C)c1ccccc1`, the IC50 result in assay [1] is listed as “Not Active”.

On to `COc1ccc(CNC(=O)[C@@H](NC(=O)[C@H](CCCCN)NC(=O)Cc2cccc(Oc3ccccc3)c2)C(C)C)c(O)c1`, for which the half-maximal inhibitory concentration (IC50) result in assay [1] is recorded as “Not Active”.

`CC(C)[C@H](NC(=O)[C@H](CC(N)=O)NC(=O)Cc1cccc(Oc2ccccc2)c1)C(=O)N[C@H](C)c1ccccc1`: the IC50 result in assay [1] was “Not Active”.

`COc1ccc(CNC(=O)[C@@H](NC(=O)[C@H](CCCCNC(=O)OCc2ccccc2)NC(=O)Cc2cccc(Oc3ccccc3)c2)C(C)C)c(O)c1`: the IC50 in assay [1] (read-out: IC50) is 11.7 µM.

`COC(=O)[C@@H](NC(=O)[C@@H](NC(=O)[C@H](CC(N)=O)NC(=O)Cc1cccc(Oc2ccccc2)c1)C(C)C)[C@H](C)O`: the IC50 in assay [1] (read-out: IC50) turned out to be 0.29 µM. The inhibition in assay [2] and in assay [3] was < 50% throughout.

For `CC(C)[C@H](NC(=O)[C@H](CC(N)=O)NC(=O)Cc1cccc(Oc2ccccc2)c1)C(=O)N[C@H](C(=O)O)[C@H](C)O`, in assay [1] (read-out: IC50), the half-maximal inhibitory concentration (IC50) amounted to 13.9 µM.

Consider `CC(C)[C@H](NC(=O)[C@H](CC(N)=O)NC(=O)Cc1cccc(Oc2ccccc2)c1)C(=O)NCCc1ccccc1`, for which, in assay [1], the IC50 result is listed as “Not Active”.

In the case of `CCCNC(=O)[C@@H](NC(=O)[C@H](CC(N)=O)NC(=O)Cc1cccc(Oc2ccccc2)c1)C(C)C`, the IC50 in assay [1] (read-out: IC50) stood at 13 µM.
